From PubChem BioAssay AID2060621 (Molecular Pharmacology Branch, DTP, NCI, 2025)

System: 324938-238-R-J1-PDC complex spheroids viability
Assay: Anticancer human tumor 324938-238-R-J1-PDC patient-derived bladder carcinoma cell line growth inhibition [CLK]
Conditions: for IC50: curve of first compound; for viability, T/C: stronger effect = lower value
Outline: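 Patient-derived tumor cells grown as complex spheroids with HUVEC endothelial cells and mesenchymal stem cells, treated with drug combinations. Concentrations descend in half-log steps from near clinical Cmax, or from 10 microM if Cmax unknown.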

[1] = second compound 0.0316 µM, first compound 0.0316 µM
[2] = second compound 0.0316 µM, first compound 0.1 µM
[3] = second compound 0.0316 µM, first compound 0.316 µM
[4] = second compound 0.0316 µM, first compound 1 µM
[5] = second compound 0.0316 µM, first compound 3.16 µM
[6] = second compound 0.0316 µM, first compound 10 µM
[7] = second compound 0.1 µM, first compound 0.0316 µM
[8] = second compound 0.1 µM, first compound 0.1 µM
[9] = second compound 0.1 µM, first compound 0.316 µM
[10] = second compound 0.1 µM, first compound 1 µM
[11] = second compound 0.1 µM, first compound 3.16 µM
[12] = second compound 0.1 µM, first compound 10 µM
[13] = second compound 0.316 µM, first compound 0.0316 µM
[14] = second compound 0.316 µM, first compound 0.1 µM
[15] = second compound 0.316 µM, first compound 0.316 µM
[16] = second compound 0.316 µM, first compound 1 µM
[17] = second compound 0.316 µM, first compound 3.16 µM
[18] = second compound 0.316 µM, first compound 10 µM
[19] = second compound 1 µM, first compound 0.0316 µM
[20] = second compound 1 µM, first compound 0.1 µM
[21] = second compound 1 µM, first compound 0.316 µM
[22] = second compound 1 µM, first compound 1 µM
[23] = second compound 1 µM, first compound 3.16 µM
[24] = second compound 1 µM, first compound 10 µM
[25] = second compound 3.16 µM, first compound 0.0316 µM
[26] = second compound 3.16 µM, first compound 0.1 µM
[27] = second compound 3.16 µM, first compound 0.316 µM
[28] = second compound 3.16 µM, first compound 1 µM
[29] = second compound 3.16 µM, first compound 3.16 µM
[30] = second compound 3.16 µM, first compound 10 µM
[31] = second compound 10 µM, first compound 0.0316 µM
[32] = second compound 10 µM, first compound 0.1 µM
[33] = second compound 10 µM, first compound 0.316 µM
[34] = second compound 10 µM, first compound 1 µM
[35] = second compound 10 µM, first compound 3.16 µM
[36] = second compound 10 µM, first compound 10 µM
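Note: viability read after seven days of drug exposure.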
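Throughout, for viability, T/C: 100% = DMSO vehicle control wells.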

SMILES: COc1ccc([C@@H](O)c2cc(-c3ncnc4cc(N5CCOCC5)ccc34)c(F)cc2Cl)nn1 + CN1CCN(c2cc(C(=O)Nc3cc4cc(-c5cnn(C)c5)ccc4cn3)ccn2)CC1
- IC50 (second compound 0.0316 µM): 2010 nM
- IC50 (second compound 0.1 µM): 57.5 nM
- IC50 (second compound 0.316 µM): < 31.6 nM
- IC50 (second compound 1 µM): < 31.6 nM
- IC50 (second compound 3.16 µM): < 31.6 nM
- IC50 (second compound 10 µM): < 31.6 nM
- viability, T/C [1]: 72%
- viability, T/C [2]: 78.8%
- viability, T/C [3]: 65.8%
- viability, T/C [4]: 59.8%
- viability, T/C [5]: 44.1%
- viability, T/C [6]: 34.7%
- viability, T/C [7]: 53%
- viability, T/C [8]: 48%
- viability, T/C [9]: 40.3%
- viability, T/C [10]: 44.5%
- viability, T/C [11]: 37.8%
- viability, T/C [12]: 30.9%
- viability, T/C [13]: 19.6%
- viability, T/C [14]: 21.9%
- viability, T/C [15]: 21.4%
- viability, T/C [16]: 20.2%
- viability, T/C [17]: 19%
- viability, T/C [18]: 18.9%
- viability, T/C [19]: 0.42%
- viability, T/C [20]: 0.46%
- viability, T/C [21]: 0.79%
- viability, T/C [22]: 0.47%
- viability, T/C [23]: 1.14%
- viability, T/C [24]: 0.71%
- viability, T/C [25]: 0.13%
- viability, T/C [26]: 0.16%
- viability, T/C [27]: 0.28%
- viability, T/C [28]: 0.12%
- viability, T/C [29]: 0.24%
- viability, T/C [30]: 0.29%
- viability, T/C [31]: 0.06%
- viability, T/C [32]: 0.14%
- viability, T/C [33]: 0.25%
- viability, T/C [34]: 0.13%
- viability, T/C [35]: 0.31%
- viability, T/C [36]: 0.58%

SMILES: CCCS(=O)(=O)Nc1ccc(F)c(C(=O)c2c[nH]c3ncc(-c4ccc(Cl)cc4)cc23)c1F + CNC(=O)c1ccc(Nc2nc(OC3CCCC3)c3c(-c4ccc5nc(C)oc5c4)c[nH]c3n2)c(OC)c1
- IC50 (second compound 0.0316 µM): 8550 nM
- IC50 (second compound 0.1 µM): < 31.6 nM
- IC50 (second compound 0.316 µM): < 31.6 nM
- IC50 (second compound 1 µM): < 31.6 nM
- IC50 (second compound 3.16 µM): < 31.6 nM
- IC50 (second compound 10 µM): < 31.6 nM
- viability, T/C [1]: 89.8%
- viability, T/C [2]: 89.2%
- viability, T/C [3]: 92.1%
- viability, T/C [4]: 103%
- viability, T/C [5]: 98.6%
- viability, T/C [6]: 43%
- viability, T/C [7]: 31.2%
- viability, T/C [8]: 32.5%
- viability, T/C [9]: 29.6%
- viability, T/C [10]: 29.1%
- viability, T/C [11]: 35.8%
- viability, T/C [12]: 33.8%
- viability, T/C [13]: 19.8%
- viability, T/C [14]: 18%
- viability, T/C [15]: 20.9%
- viability, T/C [16]: 19.3%
- viability, T/C [17]: 24.4%
- viability, T/C [18]: 26.1%
- viability, T/C [19]: 25.1%
- viability, T/C [20]: 15.8%
- viability, T/C [21]: 18.2%
- viability, T/C [22]: 22%
- viability, T/C [23]: 19.2%
- viability, T/C [24]: 18.1%
- viability, T/C [25]: 15.2%
- viability, T/C [26]: 15.8%
- viability, T/C [27]: 19.3%
- viability, T/C [28]: 19.1%
- viability, T/C [29]: 22.4%
- viability, T/C [30]: 15.5%
- viability, T/C [31]: 17.5%
- viability, T/C [32]: 18.8%
- viability, T/C [33]: 17.4%
- viability, T/C [34]: 18.3%
- viability, T/C [35]: 23.9%
- viability, T/C [36]: 17.2%

SMILES: COC1C=CCC(C)C(C)S(=O)(=O)NC(=O)c2ccc3c(c2)N(CC2CCC21)CC1(CCCc2cc(Cl)ccc21)CO3 (stereo unspecified) + CNC(=O)c1ccc(Nc2nc(OC3CCCC3)c3c(-c4ccc5nc(C)oc5c4)c[nH]c3n2)c(OC)c1
- IC50 (second compound 0.0316 µM): 210 nM
- IC50 (second compound 0.1 µM): < 31.6 nM
- IC50 (second compound 0.316 µM): < 31.6 nM
- IC50 (second compound 1 µM): < 31.6 nM
- IC50 (second compound 3.16 µM): < 31.6 nM
- IC50 (second compound 10 µM): < 31.6 nM
- viability, T/C [1]: 89.6%
- viability, T/C [2]: 79.6%
- viability, T/C [3]: 32.8%
- viability, T/C [4]: 21.8%
- viability, T/C [5]: 15.3%
- viability, T/C [6]: 7.03%
- viability, T/C [7]: 31.7%
- viability, T/C [8]: 27.9%
- viability, T/C [9]: 24.4%
- viability, T/C [10]: 15.4%
- viability, T/C [11]: 22.5%
- viability, T/C [12]: 8.36%
- viability, T/C [13]: 18%
- viability, T/C [14]: 15.1%
- viability, T/C [15]: 12.9%
- viability, T/C [16]: 12.1%
- viability, T/C [17]: 10.7%
- viability, T/C [18]: 7.76%
- viability, T/C [19]: 15.1%
- viability, T/C [20]: 13.3%
- viability, T/C [21]: 11.8%
- viability, T/C [22]: 11.2%
- viability, T/C [23]: 11.3%
- viability, T/C [24]: 7.89%
- viability, T/C [25]: 16.1%
- viability, T/C [26]: 13.2%
- viability, T/C [27]: 13.1%
- viability, T/C [28]: 10.6%
- viability, T/C [29]: 11.4%
- viability, T/C [30]: 8.28%
- viability, T/C [31]: 14.7%
- viability, T/C [32]: 15%
- viability, T/C [33]: 15%
- viability, T/C [34]: 10.7%
- viability, T/C [35]: 11.6%
- viability, T/C [36]: 9.83%
